ChEMBL document CHEMBL1201862, “PubChem BioAssay data set” (2004)
Active and inactive are the calls of the source.

Experiments:
[1] = biological target: G-protein coupled receptor 55 (Homo sapiens, UniProt Q9Y2T6); test: inhibition of LPI-stimulated GPR55 beta-arrestin translocation – imaging, U2OS, beta-arrestin-GFP, LPI agonist, primary screen (AID 2013); assay type: functional;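 note: antagonist potency measured as reduced agonist-driven arrestin aggregation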
[2] = biological target: T1, Corticotropin-releasing factor receptor 2/Corticotropin-releasing factor-binding protein (Homo sapiens, UniProt P24387+Q13324); test: Dose Response confirmation of uHTS hits for small molecule antagonists of the CRF-binding protein and CRF-R2 receptor complex.; assay type: functional; conditions: read-out: IC50_Mean
T1 sequence (Q13324 whole entry): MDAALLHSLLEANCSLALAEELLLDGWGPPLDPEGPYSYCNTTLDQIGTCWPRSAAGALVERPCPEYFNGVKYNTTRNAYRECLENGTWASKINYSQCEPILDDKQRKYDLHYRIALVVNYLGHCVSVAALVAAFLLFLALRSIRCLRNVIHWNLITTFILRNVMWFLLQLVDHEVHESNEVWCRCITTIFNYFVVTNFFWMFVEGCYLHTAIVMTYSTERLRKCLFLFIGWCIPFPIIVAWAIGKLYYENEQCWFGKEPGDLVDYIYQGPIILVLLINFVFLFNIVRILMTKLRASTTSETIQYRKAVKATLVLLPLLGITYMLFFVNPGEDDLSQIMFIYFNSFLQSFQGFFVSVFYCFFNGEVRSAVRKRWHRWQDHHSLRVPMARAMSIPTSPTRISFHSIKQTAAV
T1 sequence (P24387 whole entry): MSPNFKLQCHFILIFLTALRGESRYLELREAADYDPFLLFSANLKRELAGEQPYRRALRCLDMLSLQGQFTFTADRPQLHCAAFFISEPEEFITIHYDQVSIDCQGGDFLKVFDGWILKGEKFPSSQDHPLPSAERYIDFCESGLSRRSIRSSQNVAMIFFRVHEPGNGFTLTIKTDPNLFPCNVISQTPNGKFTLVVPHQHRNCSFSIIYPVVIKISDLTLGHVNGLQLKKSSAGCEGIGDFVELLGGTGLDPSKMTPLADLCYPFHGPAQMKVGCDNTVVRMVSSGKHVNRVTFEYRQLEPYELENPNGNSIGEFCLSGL

[3] = tested on: HEK293; test: cells; assay type: functional, cell-based; conditions: Homo sapiens
[4] = tested on: HEK293; test: inhibition of NOD1-driven NF-kB reporter – cell-based, luminescence, uHTS, primary screen (AID 1578); assay type: functional; conditions: Homo sapiens
[5] = biological target: Ion channel NompC (Danio rerio, UniProt Q7T1G6); test: Dose response cell-based high-throughput screening assay for agonists of the transient receptor potential channel N1 (TRPN1). [Related pubchem assays (depositor defined):AID1424, AID1448]; assay type: functional
[6] = tested on: HEK293; test: cells; assay type: functional, cell-based; conditions: Homo sapiens; remark: listed apart in the source
[7] = tested on: HEK293; test: cells; assay type: functional, cell-based; conditions: Homo sapiens; remark: listed apart in the source
[8] = tested on: HEK293; test: NOD2 signaling inhibitors in MDP-stimulated cells, cell-based, uHTS, luminescence (AID 2001); assay type: functional; conditions: Homo sapiens
[9] = biological target: T2, Mucolipin-3 (Homo sapiens, UniProt Q8TDD5); test: Fluorescence counterscreen assay for […] agonists: dose response cell-based high-throughput screening assay to identify agonists of the transient receptor potential channel ML3 (TRPML3). [Related pubchem assays: 1424, 1448 ]; assay type: functional
T2 sequence (Q8TDD5 whole entry): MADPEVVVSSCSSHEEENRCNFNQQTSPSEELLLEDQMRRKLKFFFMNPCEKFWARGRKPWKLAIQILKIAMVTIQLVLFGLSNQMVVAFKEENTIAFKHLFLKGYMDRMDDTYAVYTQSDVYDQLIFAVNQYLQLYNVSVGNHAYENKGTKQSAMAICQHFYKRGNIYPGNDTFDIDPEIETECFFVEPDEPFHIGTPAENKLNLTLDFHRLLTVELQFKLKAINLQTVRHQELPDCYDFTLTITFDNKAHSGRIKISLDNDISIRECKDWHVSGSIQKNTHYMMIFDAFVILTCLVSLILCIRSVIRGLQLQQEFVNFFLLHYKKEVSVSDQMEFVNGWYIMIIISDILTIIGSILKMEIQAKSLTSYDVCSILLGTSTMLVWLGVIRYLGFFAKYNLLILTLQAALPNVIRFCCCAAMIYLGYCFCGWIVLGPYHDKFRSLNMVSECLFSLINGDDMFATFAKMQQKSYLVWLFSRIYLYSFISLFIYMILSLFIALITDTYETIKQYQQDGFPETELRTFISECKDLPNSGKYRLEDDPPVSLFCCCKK

[10] = biological target: T1, Corticotropin-releasing factor receptor 2/Corticotropin-releasing factor-binding protein; test: activators of CRF receptor 2 with binding protein – uHTS hits, confirmation (AID 602473); assay type: functional; conditions: read-out: EC50_Mean
[11] = blockers of CRF-binding protein–CRF-R2 complex – cell-based, uHTS hits, 384-well, dose response (AID 651639); assay type: functional, Homo sapiens; conditions: read-out: IC50_Mean
[12] = biological target: Nucleotide-binding oligomerization domain-containing protein 2 (Homo sapiens, UniProt Q9HC29); test: inhibition of NOD2-driven NF-kB reporter – cell-based, luminescence, uHTS, HEK293 (AID 1566); assay type: functional
Nucleotide-binding oligomerization domain-containing protein 2, sequence (Q9HC29 whole entry, the tested form may be a part): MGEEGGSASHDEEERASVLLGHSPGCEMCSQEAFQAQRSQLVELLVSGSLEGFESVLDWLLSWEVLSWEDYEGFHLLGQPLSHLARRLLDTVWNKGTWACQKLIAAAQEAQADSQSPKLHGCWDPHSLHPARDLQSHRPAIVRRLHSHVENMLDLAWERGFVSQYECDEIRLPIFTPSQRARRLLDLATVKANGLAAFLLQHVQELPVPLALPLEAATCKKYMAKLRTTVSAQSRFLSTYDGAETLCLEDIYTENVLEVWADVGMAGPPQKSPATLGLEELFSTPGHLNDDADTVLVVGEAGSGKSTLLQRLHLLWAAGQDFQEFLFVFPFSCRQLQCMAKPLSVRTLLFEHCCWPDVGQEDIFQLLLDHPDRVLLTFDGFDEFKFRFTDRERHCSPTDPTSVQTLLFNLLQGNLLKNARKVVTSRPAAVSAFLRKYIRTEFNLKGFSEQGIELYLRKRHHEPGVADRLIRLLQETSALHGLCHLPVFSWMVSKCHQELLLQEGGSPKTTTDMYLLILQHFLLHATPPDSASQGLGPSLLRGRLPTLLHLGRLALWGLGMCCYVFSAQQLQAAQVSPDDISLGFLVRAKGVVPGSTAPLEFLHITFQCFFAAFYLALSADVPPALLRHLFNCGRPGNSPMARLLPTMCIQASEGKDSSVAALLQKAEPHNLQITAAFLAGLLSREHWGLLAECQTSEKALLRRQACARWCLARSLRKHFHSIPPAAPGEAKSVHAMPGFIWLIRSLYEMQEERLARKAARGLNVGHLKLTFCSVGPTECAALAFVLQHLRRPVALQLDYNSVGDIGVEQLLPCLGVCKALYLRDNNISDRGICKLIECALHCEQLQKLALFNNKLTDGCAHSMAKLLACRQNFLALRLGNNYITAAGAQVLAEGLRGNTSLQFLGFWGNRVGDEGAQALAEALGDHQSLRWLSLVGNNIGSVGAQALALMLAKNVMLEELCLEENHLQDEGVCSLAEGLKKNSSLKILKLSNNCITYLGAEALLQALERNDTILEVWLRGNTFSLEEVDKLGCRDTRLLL

G-protein coupled receptor 55, sequence (Q9Y2T6 whole entry): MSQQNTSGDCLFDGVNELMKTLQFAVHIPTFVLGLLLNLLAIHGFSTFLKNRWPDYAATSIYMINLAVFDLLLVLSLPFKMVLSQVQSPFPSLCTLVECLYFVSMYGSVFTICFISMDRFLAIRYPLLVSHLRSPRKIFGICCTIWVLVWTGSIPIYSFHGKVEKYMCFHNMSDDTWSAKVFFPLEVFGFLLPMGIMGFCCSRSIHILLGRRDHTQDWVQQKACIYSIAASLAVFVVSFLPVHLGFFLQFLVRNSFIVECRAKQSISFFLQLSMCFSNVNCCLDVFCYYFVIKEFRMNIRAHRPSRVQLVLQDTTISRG
Ion channel NompC, sequence (Q7T1G6 whole entry): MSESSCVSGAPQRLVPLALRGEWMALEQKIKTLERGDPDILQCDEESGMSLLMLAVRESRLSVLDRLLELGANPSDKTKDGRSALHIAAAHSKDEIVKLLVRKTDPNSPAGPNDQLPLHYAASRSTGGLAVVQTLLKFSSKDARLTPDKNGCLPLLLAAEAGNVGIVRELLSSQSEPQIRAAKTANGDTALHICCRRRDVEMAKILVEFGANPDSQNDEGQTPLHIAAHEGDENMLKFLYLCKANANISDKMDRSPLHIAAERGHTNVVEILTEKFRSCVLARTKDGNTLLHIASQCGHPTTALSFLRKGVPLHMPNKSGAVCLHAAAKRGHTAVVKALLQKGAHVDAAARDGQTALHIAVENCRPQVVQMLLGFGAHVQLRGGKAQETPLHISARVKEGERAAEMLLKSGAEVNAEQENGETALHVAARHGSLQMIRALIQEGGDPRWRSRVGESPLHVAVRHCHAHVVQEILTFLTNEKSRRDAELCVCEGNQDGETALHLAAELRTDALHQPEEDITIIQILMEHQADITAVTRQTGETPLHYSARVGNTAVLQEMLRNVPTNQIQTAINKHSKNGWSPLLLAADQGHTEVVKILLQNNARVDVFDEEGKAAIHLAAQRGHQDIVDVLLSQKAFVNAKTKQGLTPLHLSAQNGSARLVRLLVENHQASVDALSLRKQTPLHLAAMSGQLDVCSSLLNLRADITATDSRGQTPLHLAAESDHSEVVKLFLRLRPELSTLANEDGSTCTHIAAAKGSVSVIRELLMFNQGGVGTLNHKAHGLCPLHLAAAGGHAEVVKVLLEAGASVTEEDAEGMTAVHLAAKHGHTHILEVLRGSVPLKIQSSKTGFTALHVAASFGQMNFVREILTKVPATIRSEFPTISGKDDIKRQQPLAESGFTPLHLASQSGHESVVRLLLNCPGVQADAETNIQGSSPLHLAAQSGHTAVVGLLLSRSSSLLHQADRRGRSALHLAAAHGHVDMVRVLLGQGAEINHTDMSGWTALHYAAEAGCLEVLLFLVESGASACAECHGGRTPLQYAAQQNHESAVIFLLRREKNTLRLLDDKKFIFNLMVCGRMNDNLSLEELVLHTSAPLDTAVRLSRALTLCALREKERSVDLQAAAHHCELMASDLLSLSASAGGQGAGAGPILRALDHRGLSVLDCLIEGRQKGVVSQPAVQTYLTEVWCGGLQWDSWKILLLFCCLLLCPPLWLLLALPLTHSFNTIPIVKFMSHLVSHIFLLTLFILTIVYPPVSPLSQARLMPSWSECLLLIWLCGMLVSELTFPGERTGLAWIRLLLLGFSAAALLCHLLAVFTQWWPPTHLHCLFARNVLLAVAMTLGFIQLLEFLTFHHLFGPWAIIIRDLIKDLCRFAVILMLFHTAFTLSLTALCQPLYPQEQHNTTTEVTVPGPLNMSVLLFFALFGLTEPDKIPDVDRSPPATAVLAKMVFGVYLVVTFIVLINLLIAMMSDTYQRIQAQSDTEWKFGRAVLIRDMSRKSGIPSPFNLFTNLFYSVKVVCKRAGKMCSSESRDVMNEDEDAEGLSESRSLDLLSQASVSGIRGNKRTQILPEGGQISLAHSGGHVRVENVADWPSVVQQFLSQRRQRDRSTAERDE

IC50 [1] | Compound | IC50 [2] | IC50 [3] | EC50 [4] | EC50 [5] | IC50 [6] | IC50 [7] | IC50 [8] | EC50 [9] | EC50 [10] | IC50 [11] | EC50 [12]
7.26 µM (active) | NC(=O)c1cc(-c2ccccc2)nc(N2CCOCC2)n1 | – | – | – | – | – | – | – | – | – | – | –
– | COC(=O)c1ccc(NC(=O)c2ccccc2NS(=O)(=O)c2ccccc2)cc1 | 0.506 µM (active) | > 20 µM (inactive) | 2.34 µM (active) | > 29.9 µM (inactive) | > 20 µM (inactive) | 12.9 µM (active) | 7.55 µM (active) | > 29.9 µM (not active) | > 53 µM (inactive) | > 20 µM (inactive) | 6.09 µM (active)
